Assay [1] addresses T1, MAGL (Mus musculus, UniProt O35678).
T1 sequence (O35678 1-303): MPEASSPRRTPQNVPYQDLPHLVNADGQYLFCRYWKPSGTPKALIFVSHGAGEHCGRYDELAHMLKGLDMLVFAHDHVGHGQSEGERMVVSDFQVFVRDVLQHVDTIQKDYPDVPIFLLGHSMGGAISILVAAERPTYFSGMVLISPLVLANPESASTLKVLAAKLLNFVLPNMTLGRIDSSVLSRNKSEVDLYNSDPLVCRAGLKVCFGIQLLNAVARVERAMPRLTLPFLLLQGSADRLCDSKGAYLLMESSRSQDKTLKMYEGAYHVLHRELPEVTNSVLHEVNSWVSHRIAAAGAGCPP
Nature of the assay: In vitro competitive activity-based protein profiling, MAGL, mouse. The following applies: read-out: MAGL % inh. 1 μM (mouse).

Assay [2] concerns the target T2, MAGL (Homo sapiens, UniProt Q99685).
T2 sequence (Q99685 1-303): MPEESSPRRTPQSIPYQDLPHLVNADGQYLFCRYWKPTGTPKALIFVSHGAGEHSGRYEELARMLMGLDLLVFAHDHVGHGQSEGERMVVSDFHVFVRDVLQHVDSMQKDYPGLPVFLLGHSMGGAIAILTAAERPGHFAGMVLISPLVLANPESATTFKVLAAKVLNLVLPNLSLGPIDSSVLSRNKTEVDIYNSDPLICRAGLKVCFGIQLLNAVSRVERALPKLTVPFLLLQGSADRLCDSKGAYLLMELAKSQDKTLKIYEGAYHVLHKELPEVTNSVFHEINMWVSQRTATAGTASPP
Nature of the assay: In vitro competitive activity-based protein profiling, MAGL, human. The following applies: read-out: MAGL % inh. 1 μM (human).

Assay [3] concerns the target T1, MAGL. In words: Mouse brain proteomes from inhibitor treated mice (oral gavage, sacrificed 4 h after administration). Type of assay: in vivo. Details: mouse brain membrane fraction for mouse assays; from tissue; host or cells: mouse brain (membrane fraction in vitro; brain proteomes of treated C57Bl/6J mice in vivo). The following applies: 5 mg/kg oral gavage, brain proteome 4 h after administration, read-out: MAGL % inh. 5 mg/kg (mouse).

Read-outs that look alike come from different tables or passages of the source.

Consider `O=C(O)c1ccn(C(=O)N2C[C@H]3C[C@H](Oc4cc(Cl)cc(Cl)c4)C[C@H]3C2)n1` [Example 230, 1-(trans-5-(3,5-dichlorophenoxy)octahydrocyclopenta [c]pyrrole-2-carbonyl)-1H-pyrazole-3-carboxylic acid], for which the inhibition at 1 µM at MAGL [1] and at MAGL [2] was over 75% each time. On MAGL [3], the inhibition at 5 mg/kg is 0 to 25%.
As for `O=C(O)c1ccn(C(=O)N2C[C@H]3C[C@H](Oc4cccc(-c5cccnc5)c4)C[C@H]3C2)n1` [Example 241, 1-(trans-5-(3-(pyridin-3-yl)phenoxy)octa-hydrocyclopenta[c]pyrrole-2-carbonyl)-1H-pyrazole-3-carboxylic acid], the inhibition at 1 µM at MAGL [1] and at MAGL [2] was over 75% in each case. In addition, the inhibition at 5 mg/kg at MAGL [3] lay in the range of 0 to 25%.
With `C[C@H]1CN(Cc2cc(F)cc(Oc3ccc(Cl)cc3)c2)CCN1C(=O)n1ccc(C(=O)O)n1` [Example 347, (S)-1-(4-(3-(4-chlorophenoxy)-5-fluorobenzyl)-2-methylpiperazine-1-carbonyl)-1H-pyrazole-3-carboxylic acid], the inhibition at 1 µM on MAGL [1] and at MAGL [2] was over 75% in each case. For the same molecule, the inhibition at 5 mg/kg at MAGL [3] was 0 to 25%.
For the molecule `C[C@@H]1CN(Cc2ccc(C(F)(F)F)cc2N2CCCC2)CCN1C(=O)n1ccc(C(=O)O)n1` [Example 327, (R)-1-(2-methyl-4-(2-(pyrrolidin-1-yl)-4-(trifluoromethyl)benzyl)piperazine-1-carbonyl)-1H-pyrazole-3-carboxylic acid], the inhibition at 1 µM on MAGL [1] and on MAGL [2] was over 75% each time. On MAGL [3], the inhibition at 5 mg/kg was in the range of 0 to 25%.
Turning to `O=C(O)c1ccn(C(=O)N2CCC3(CCCN3C(=O)c3ccc(C(F)(F)F)cc3N3CCCC3)CC2)n1` [Example 403, 1-(1-(2-(pyrrolidin-1-yl)-4-(trifluoromethyl)benzoyl)-1,8-diazaspiro[4.5]decane-8-carbonyl)-1H-pyrazole-3-carboxylic acid], the inhibition at 1 µM at MAGL [1] and at MAGL [2] was over 75% each time. In addition, on MAGL [3] (C57Bl/6J mice), the inhibition at 5 mg/kg is 0 to 25%.
On to `CN(Cc1cccc(C(F)(F)F)c1N1CCCC1)C1(C)CCN(C(=O)n2ccc(C(=O)O)n2)CC1` [Example 382, 1-(4-methyl-4-(methyl(2-(pyrrolidin-1-yl)-3-(trifluoromethyl)benzyl)amino)piper-idine-1-carbonyl)-1H-pyrazole-3-carboxylic acid], for which the inhibition at 1 µM on MAGL [1] and on MAGL [2] was over 75% throughout. Moreover, the inhibition at 5 mg/kg at MAGL [3] is 0 to 25%.
`O=C(O)c1ccn(C(=O)N2CCN(Cc3cc(Cl)cc(-c4cncnc4)c3)CC2)n1` [Example 269, 1-(4-(3-chloro-5-(pyrimidin-5-yl)benzyl)piperazine-1-carbonyl)-1H-pyrazole-3-carboxylic acid]: the inhibition at 1 µM on MAGL [1] and at MAGL [2] was over 75% each time. Also, the inhibition at 5 mg/kg at MAGL [3] fell in the range of 0 to 25%.
Take `C[C@H]1CN(Cc2cccc(Oc3ccc(Cl)cc3)c2)CCN1C(=O)n1ccc(C(=O)O)n1` [Example 311, (S)-1-(4-(3-(4-chlorophenoxy)benzyl)-2-methylpiperazine-1-carbonyl)-1H-pyrazole-3-carboxylic acid]: the inhibition at 1 µM on MAGL [1] and on MAGL [2] was over 75% in each case. The inhibition at 5 mg/kg on MAGL [3] is 0 to 25%.
On to `O=C(O)c1ccn(C(=O)N2CCC(Oc3cc(N4CCCC4)cc(C(F)(F)F)c3)CC2)n1` [Example 308, 1-(4-(3-(pyrrolidin-1-yl)-5-(trifluoromethyl)phenoxy)piperidine-1-carbonyl)-1H-pyrazole-3-carboxylic acid], for which the inhibition at 1 µM at MAGL [1] and on MAGL [2] was over 75% each time. Further, the inhibition at 5 mg/kg on MAGL [3] fell in the range of 0 to 25%.
Consider `C[C@@H]1CN(Cc2ccc(-c3ccccc3)cc2Cl)CCN1C(=O)n1ccc(C(=O)O)n1` [Example 291, (R)-1-(4-((3-chloro-[1,1′-biphenyl]-4-yl)methyl)-2-methylpiperazine-1-carbonyl)-1H-pyrazole-3-carboxylic acid], for which the inhibition at 1 µM at MAGL [1] and at MAGL [2] was over 75% throughout. The inhibition at 5 mg/kg on MAGL [3] is 25 to 50%.
For the molecule `O=C(O)c1ccn(C(=O)N2CCC(Oc3ccc(C(F)(F)F)cc3N3CCCC3)CC2)n1` [Example 307, 1-(4-(2-(pyrrolidin-1-yl)-4-(trifluoromethyl)phenoxy)piperidine-1-carbonyl)-1H-pyrazole-3-carboxylic acid], the inhibition at 1 µM on MAGL [1] and on MAGL [2] was over 75% in each case. Further, on MAGL [3], the inhibition at 5 mg/kg was in the range of 0 to 25%.
For the molecule `C[C@H]1CN(Cc2ccc(C(F)(F)F)cc2N2CCCC2)CCN1C(=O)n1ccc(C(=O)O)n1` [Example 328, (S)-1-(2-methyl-4-(2-(pyrrolidin-1-yl)-4-(trifluoromethyl)benzyl)piperazine-1-carbonyl)-1H-pyrazole-3-carboxylic acid], the inhibition at 1 µM on MAGL [1] and on MAGL [2] was over 75% in each case. Further, the inhibition at 5 mg/kg on MAGL [3] lay in the range of 0 to 25%.
As for `C[C@H]1CC[C@H](C)N1c1cc(C(F)(F)F)ccc1CN1CCN(C(=O)n2ccc(C(=O)O)n2)CC1` [Example 360, 1-(4-(2-((2S,5S)-2,5-dimethylpyrrolidin-1-yl)-4-(trifluoromethyl)benzyl)piperazine-1-carbonyl)-1H-pyrazole-3-carboxylic acid], the inhibition at 1 µM at MAGL [1] and on MAGL [2] was over 75% throughout. For the same molecule, the inhibition at 5 mg/kg on MAGL [3] is 0 to 25%.
On to `O=C(O)c1ccn(C(=O)N2CCC3(CCN(Cc4cc(Cl)cc(Cl)c4Cl)C3)CC2)n1` [Example 337, 1-(2-(2,3,5-trichlorobenzyl)-2,8-diazaspiro[4.5]decane-8-carbonyl)-1H-pyrazole-3-carboxylic acid], for which the inhibition at 1 µM on MAGL [1] and at MAGL [2] was over 75% each time. Also, the inhibition at 5 mg/kg at MAGL [3] lay within 0 to 25%.
As for `CC(C)c1cccc(O[C@H]2C[C@@H]3CN(C(=O)n4ccc(C(=O)O)n4)C[C@@H]3C2)c1` [Example 220, 1-(trans-5-(3-isopropylphenoxy)ocatahydrocyclo-penta[c]pyrrole-2-carbonyl)-1H-pyrazole-3-carboxylic acid], the inhibition at 1 µM at MAGL [1] and at MAGL [2] was over 75% each time. Besides, the inhibition at 5 mg/kg on MAGL [3] fell in the range of 25 to 50%.
As to `O=C(O)c1nn(C(=O)N2CCC3(CCN(Cc4cccc(Cl)c4C(F)(F)F)C3)CC2)cc1Cl` [Example 26, 4-Chloro-1-(2-(3-chloro-2-(trifluoromethyl)benzyl)-2,8-diazaspiro[4.5]decane-8-carbonyl)-1H-pyrazole-3-carboxylic Acid], the inhibition at 1 µM at MAGL [1] and on MAGL [2] was over 75% each time. Moreover, the inhibition at 5 mg/kg on MAGL [3] is 0 to 25%.
Turning to `O=C(O)c1ccn(C(=O)N2CCC3(CCCN3Cc3ccc(C(F)(F)F)cc3N3CCCCC3)CC2)n1` [Example 404, 1-(1-(2-(piperidin-1-yl)-4-(trifluoromethyl)benzyl)-1,8-diazaspiro[4.5]decane-8-carbonyl)-1H-pyrazole-3-carboxylic acid], the inhibition at 1 µM at MAGL [1] and at MAGL [2] was over 75% throughout. Besides, the inhibition at 5 mg/kg at MAGL [3] (C57Bl/6J mice) was 0 to 25%.
On to `Cc1cn(C(=O)N2C[C@H]3C[C@H](OCc4cc(F)cc(Cl)c4)C[C@H]3C2)nc1C(=O)O` [Example 252, 1-(trans-5-((3-chloro-5-fluorobenzyl)oxy)octahydrocyclopenta [c]pyrrole-2-carbonyl)-4-methyl-1H-pyrazole-3-carboxylic acid], for which the inhibition at 1 µM at MAGL [1] and on MAGL [2] was over 75% throughout. The inhibition at 5 mg/kg at MAGL [3] fell in the range of 0 to 25%.
As to `O=C(O)c1ccn(C(=O)N2CCC3(CCCN3Cc3ccc(C(F)(F)F)cc3N3CCC(F)CC3)CC2)n1` [Example 413, 1-(1-(2-(4-fluoropiperidin-1-yl)-4-(trifluoromethyl)benzyl)-1,8-diazaspiro[4.5]decane-8-carbonyl)-1H-pyrazole-3-carboxylic acid], the inhibition at 1 µM at MAGL [1] and at MAGL [2] was over 75% in each case. The inhibition at 5 mg/kg on MAGL [3] (C57Bl/6J mice) lay in the range of 0 to 25%.
`C[C@@H]1C[C@@H](N(C)Cc2cccc(C(F)(F)F)c2)CCN1C(=O)n1ccc(C(N)=O)n1` [Example 260, 1-((2R,4S)-2-methyl-4-(methyl(3-(trifluoromethyl)benzyl)amino)piper-idine-1-carbonyl)-1H-pyrazole-3-carboxamide]: the inhibition at 1 µM at MAGL [1] and on MAGL [2] was over 75% in each case. For the same molecule, the inhibition at 5 mg/kg at MAGL [3] was over 75%.
